Paper PMC11594246, “Nitrilase GiNIT from Gibberella intermedia Efficiently Degrades Nitriles Derived from Rapeseed Meal Glucosinolate” (International Journal of Molecular Sciences, 2024)

What was measured:
[1] = target: T1, rRrNIT (Rhodococcus rhodochrous, UniProt Q02068); experiment: specific activity, Bertholet ammonia assay; assay type: biochemical; settings: 50 mM substrate, pH 7.5, 45 °C
T1 construct: synthetic gene expressed in E. coli BL21(DE3), purified
T1 sequence (Q02068 1-383): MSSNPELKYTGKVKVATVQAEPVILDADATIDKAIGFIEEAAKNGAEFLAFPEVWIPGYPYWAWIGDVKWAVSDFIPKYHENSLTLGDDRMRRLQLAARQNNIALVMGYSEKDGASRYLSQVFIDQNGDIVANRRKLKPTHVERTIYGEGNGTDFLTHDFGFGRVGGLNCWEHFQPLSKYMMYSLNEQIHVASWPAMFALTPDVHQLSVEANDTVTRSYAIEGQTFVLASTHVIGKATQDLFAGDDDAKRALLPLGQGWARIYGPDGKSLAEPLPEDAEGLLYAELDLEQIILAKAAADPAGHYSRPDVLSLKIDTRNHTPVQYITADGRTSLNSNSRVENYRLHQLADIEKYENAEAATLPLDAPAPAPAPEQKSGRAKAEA

[2] = target: T2, rBdNIT (Bradyrhizobium diazoefficiens, UniProt Q89PT3); experiment: specific activity, Bertholet ammonia assay; assay type: biochemical; settings: 50 mM substrate, pH 7.5, 45 °C
T2 construct: gene blr3397; synthetic gene expressed in E. coli BL21(DE3), purified
T2 sequence (Q89PT3 1-321): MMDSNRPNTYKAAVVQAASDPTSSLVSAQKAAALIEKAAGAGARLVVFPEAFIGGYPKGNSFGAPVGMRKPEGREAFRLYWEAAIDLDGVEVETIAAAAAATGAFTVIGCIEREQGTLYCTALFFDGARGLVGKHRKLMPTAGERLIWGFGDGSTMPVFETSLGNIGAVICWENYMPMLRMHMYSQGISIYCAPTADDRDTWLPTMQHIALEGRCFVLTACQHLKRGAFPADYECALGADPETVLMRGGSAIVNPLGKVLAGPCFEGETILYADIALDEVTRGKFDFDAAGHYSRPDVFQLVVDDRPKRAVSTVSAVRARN

Row | Structure (SMILES) | specific activity, Bertholet ammonia assay [1] | specific activity, Bertholet ammonia assay [2]
1 | C=CCC#N [3-butenenitrile] | rRrNIT from Rhodococcus rhodochrous | rBdNIT from Bradyrhizobium diazoefficiens
2 | C=CCCC#N [4-pentenenitrile] | rRrNIT from Rhodococcus rhodochrous | rBdNIT from Bradyrhizobium diazoefficiens
